The values below come from patent US5652359A, “Oligonucleotides containing n-methyl thiolated bases having antiviral activity” (Epoch Pharmaceuticals, Inc., priority 1993, dated 1997).

Structures are written as SMILES.

In this test the test system is HIV-1 (strain LAY-1). Nature of the test: Inhibition of HIV virus replication in human peripheral blood mononuclear (PBM) cells. The test is classed as cell-based. The settings on record: Human immunodeficiency virus 1, PBMC, 144 h, supernatant RT activity six days after infection, read-out: IC50, 50% inhibition of replication of HIV. The source says:
The group R' in Table 1 represents the cholesterol "tail" of Compound 7 which is connected to the 3'-terminal phosphate through a "linking group" derived from 4-hydroxy-2-hydroxymethylpyrrolidine and carbonyl connecting group. […] The IC50 numbers in Table 1 refer to the concentration of the compound which gives 50% inhibition of replication of HIV in a cell culture of human peripheral blood mononuclear (PBM) cells.
Cell Culture. Human PBM cells from healthy HIV-1 seronegative and hepatitis B virus seronegative donors were isolated by Ficoll-Hypaque discontinuous gradient centrifugation at 1,000× g for 30 minutes, washed twice in phosphate-buffered saline (pH 7.2; PBS), and pelleted at 300× g for 10 min. […]
Viruses. […] The virus was propagated in human PBM cells using RPMI 1640 medium, as described previously (McDougal, J. S., Cort, S. P., Kennedy, M. S. Cabridilla, C. D., Feorino, P. M., Francis, D. P., Hicks, D., Kalyanaramen, V. S. and Martin, L. S. (1985): Immunoassay for the detection and quantitation of infectious human retrovirus, lymphadenopathy-associated virus (LAV). J. Immun. Meth. 76:171-183) without PHA or fungizone and supplemented with 26 units/ml of recombinant interleukin-2 (Cetus Corporation, Emeryville, Calif.), 7 μg/ml DEAE-dextran (Pharmacia, Uppsala, Sweden), and 370 U/ml anti-human leukocyte (alpha) interferon (ICN, Lisle, Ill.). […]

As a reminder, the IC50 is the concentration that gives 50% inhibition. Regarding `CO[C@@H]1[C@H](O)[C@@H](CO)O[C@H]1n1cnc2c(=S)n(C)cnc21` [Nucleoside, 9(2'-O-methyl-1-β-D-ribofuranosyl)-1-methyl-6-thiopurine], the IC50 is approximately 100 µM.
